Source: patent US20010049373A1, “Materials and methods for killing nematodes and nematode eggs” (priority 2000, published 2001)

How the values were obtained:
[1] = tested on: Caenorhabditis elegans; test: C. elegans L1 larvae dose-response, 5 day visual viability score (Examples 2 and 7); type: in vivo; design: key: Dead: only stiff L1s (no movement); Dead (L4): worms are dead, but at a later larval stage; majority of worms are L1 (based on size); majority of worms are L2 (based on size); majority of worms are L3 (based on size); majority of worms are L4 (based on size); AD: majority of worms are adult; #AD: 5 adult worms or less; B!: sterile (0-25 progeny); B: low broodsize (25-100 progeny); ˜B: moderate broodsize (100-250 progeny); <: reduced broodsize (250-500 progeny); OK: no effect (˜1000+ progeny)
Experimental: Caenorhabditis elegans adults were grown on Nematode Growth Medium (NGM) until they produced eggs, then the adults were removed.
The eggs were allowed to hatch, and the L1 larvae collected. See The Neniatode Caenorhabditis elegans (1988) Cold Spring Harbor Laboratory Press. Using a Matrix Programmable Pipette, the L1s were distributed into 96-well tissue culture plates, 20 L1 in 50 μl NGM per well. Antibiotic/Antimyotic was added to each well, and 1% by weight E. coli strain HB101. The subject anthelmintic compounds were stored at 5 mM in 100% DMSO. 0.7 μl of compounds 1-31 were added to the left-most column of wells to yield a final concentration of 70 μM in 1.4% DMSO, with 1.4% DMSO only as the control. The compounds were then subjected to 5 more 3-fold dilutions from left to right to yield 6 column concentrations of 70 μM, 23.3 μM, 7.8 μM, 2.6 μM, 0.9 μM, and 0.3 μM. Plates were stored in air-tight Rubbermaid plastic boxes at 20° C. The nematodes had cleared all control wells by day 4, and nematode viability was scored by visual examination under a 100× dissecting microscope on day 5. A visual viability scoring system was used as follows:
If several classes of worms exist in a well, then all classes are scored. If adults are present, then the brood score is also recorded. Thus, “L1/L2” would mean a mixture of L1's and L2's are present in the well. “L4/#AD/B” would mean that a mixture of L4's and adults are resent in the well. The “#AD” would mean that there are 6 or less adults, and the “B” would mean that there were 100 progeny or less.
Column VI has a compound concentration of 70 μM with sequential 3-fold dilutions reported in columns V2, V3, V4, V5, and V6, respectively, such that the V6 concentration was 0.3 μM.
(§1) The nematicidal activity of anthelmintic Compositions 48-118 were determined in accordance with the procedure outlined in Example 2.

[2] = tested on: Caenorhabditis elegans; test: HTS runs (initial and follow-up): mOD, % Run and visual score (Table 3); type: in vivo; design: key to Initial HTS Run Visual Score / Follow-up HTS Run Visual Score: Dead: only stiff L1s (no movement); Dead (L4): worms are dead, but at a later larval stage; majority of worms are L1 (based on size); majority of worms are L2 (based on size); majority of worms are L3 (based on size); majority of worms are L4 (based on size); AD: majority of worms are adult; #AD: 5 adult worms or less; B!: sterile (0-25 progeny); B: low broodsize (25-100 progeny); ˜B: moderate broodsize (100-250 progeny); <: reduced broodsize (250-500 progeny); OK: no effect (˜1000+ progeny)
Experimental: as §1

[3] = 23.3 μM, viability scored day 5, Table 1
[4] = 70 μM, viability scored day 5, Table 1
[5] = 0.3 μM (procedure of Example 2), day 5, Table 3
[6] = 0.9 μM (procedure of Example 2), day 5, Table 3
[7] = 2.6 μM (procedure of Example 2), day 5, Table 3
[8] = 23.3 μM (procedure of Example 2), day 5, Table 3
[9] = 70 μM (procedure of Example 2), day 5, Table 3
[10] = 7.8 μM (procedure of Example 2), day 5, Table 3
[11] = 0.3 μM, viability scored day 5, Table 1
[12] = 2.6 μM, viability scored day 5, Table 1
[13] = 7.8 μM, viability scored day 5, Table 1
[14] = 0.9 μM, viability scored day 5, Table 1

O=C(NCCc1ccccc1F)C1C(c2ccc(F)cc2)=NOC1c1ccc(-c2ccccc2)cc1 (stereo not shown) [AKC 2153]
5 Day Visual Score V2 [1, 3]: L1 | 5 Day Visual Score V1 [1, 4]: L1

FC(F)(F)c1ccc(CNc2cc(Oc3cccc(Cl)c3)ncn2)cc1 [AKC 356]
Follow-up HTS Run % Run [2]: 122% | Follow-up HTS Run Visual Score [2]: L2 | Follow-up HTS Run mOD [2]: 165 mOD | Initial HTS Run % Run [2]: 139% | Initial HTS Run Visual Score [2]: Dead | Initial HTS Run mOD [2]: 272 mOD | 5 Day Visual Score V6 [1, 5]: < (reduced broodsize (250-500 progeny)) | 5 Day Visual Score V5 [1, 6]: OK (no effect (˜1000+ progeny)) | 5 Day Visual Score V4 [1, 7]: OK (no effect (˜1000+ progeny)) | 5 Day Visual Score V2 [1, 8]: Dead | 5 Day Visual Score V1 [1, 9]: Dead

CCC1CCCCN1c1cc(Oc2ccc(-c3ccccc3)cc2)ncn1 (stereo not shown) [AKC 148]
Follow-up HTS Run % Run [2]: 126% | Follow-up HTS Run Visual Score [2]: Dead | Follow-up HTS Run mOD [2]: 170 mOD | Initial HTS Run % Run [2]: 143% | Initial HTS Run Visual Score [2]: Dead-Black Husk | Initial HTS Run mOD [2]: 278 mOD | 5 Day Visual Score V6 [1, 5]: ˜B (moderate broodsize (100-250 progeny)) | 5 Day Visual Score V5 [1, 6]: ˜B (moderate broodsize (100-250 progeny)) | 5 Day Visual Score V3 [1, 10]: Dead | 5 Day Visual Score V2 [1, 8]: Dead | 5 Day Visual Score V1 [1, 9]: Dead

O=C(NCC1CCC(c2nc(-c3ccccc3)no2)CC1)Nc1ccc(OC(F)(F)F)cc1 (stereo not shown) [AKC 113]
5 Day Visual Score V6 [1, 11]: L4/#AD/B | 5 Day Visual Score V4 [1, 12]: Dead(L2/L | 5 Day Visual Score V3 [1, 13]: Dead | 5 Day Visual Score V2 [1, 3]: Dead | 5 Day Visual Score V1 [1, 4]: Dead

C#Cc1cccc(N(CC(=O)Nc2ccc(S(N)(=O)=O)cc2)Cc2cccs2)c1 [AKC 394]
Follow-up HTS Run % Run [2]: 111% | Follow-up HTS Run Visual Score [2]: Dead | Follow-up HTS Run mOD [2]: 150 mOD | Initial HTS Run % Run [2]: 135% | Initial HTS Run Visual Score [2]: Dead | Initial HTS Run mOD [2]: 264 mOD | 5 Day Visual Score V6 [1, 5]: < (reduced broodsize (250-500 progeny)) | 5 Day Visual Score V5 [1, 6]: OK (no effect (˜1000+ progeny)) | 5 Day Visual Score V4 [1, 7]: OK (no effect (˜1000+ progeny)) | 5 Day Visual Score V2 [1, 8]: Dead | 5 Day Visual Score V1 [1, 9]: Dead

Fc1ccc(Oc2cc(NCc3cccc(C(F)(F)F)c3)ncn2)cc1 [AKC 380]
Follow-up HTS Run % Run [2]: 102% | Follow-up HTS Run Visual Score [2]: L4/AD/B! | Follow-up HTS Run mOD [2]: 138 mOD | Initial HTS Run % Run [2]: 129% | Initial HTS Run Visual Score [2]: Dead | Initial HTS Run mOD [2]: 251 mOD | 5 Day Visual Score V6 [1, 5]: OK (no effect (˜1000+ progeny)) | 5 Day Visual Score V5 [1, 6]: OK (no effect (˜1000+ progeny)) | 5 Day Visual Score V4 [1, 7]: OK (no effect (˜1000+ progeny)) | 5 Day Visual Score V3 [1, 10]: OK (no effect (˜1000+ progeny)) | 5 Day Visual Score V1 [1, 9]: L1

FC(F)(F)c1ccccc1CNc1cc(Oc2ccc(-c3ccccc3)cc2)ncn1 [AKC 339]
Follow-up HTS Run % Run [2]: 113% | Follow-up HTS Run Visual Score [2]: B (low broodsize (25-100 progeny)) | Follow-up HTS Run mOD [2]: 153 mOD | Initial HTS Run % Run [2]: 142% | Initial HTS Run Visual Score [2]: 1AD/B | Initial HTS Run mOD [2]: 277 mOD | 5 Day Visual Score V6 [1, 5]: OK (no effect (˜1000+ progeny)) | 5 Day Visual Score V5 [1, 6]: OK (no effect (˜1000+ progeny)) | 5 Day Visual Score V4 [1, 7]: OK (no effect (˜1000+ progeny)) | 5 Day Visual Score V3 [1, 10]: OK (no effect (˜1000+ progeny)) | 5 Day Visual Score V2 [1, 8]: OK (no effect (˜1000+ progeny)) | 5 Day Visual Score V1 [1, 9]: OK (no effect (˜1000+ progeny))

CC(CCc1ccccc1)Nc1cc(Oc2ccc(-c3ccccc3)cc2)ncn1 (stereo not shown) [AKC 149]
Follow-up HTS Run % Run [2]: 100% | Follow-up HTS Run Visual Score [2]: Dead | Follow-up HTS Run mOD [2]: 135 mOD | Initial HTS Run % Run [2]: 133% | Initial HTS Run Visual Score [2]: Dead | Initial HTS Run mOD [2]: 259 mOD | 5 Day Visual Score V6 [1, 5]: < (reduced broodsize (250-500 progeny)) | 5 Day Visual Score V5 [1, 6]: < (reduced broodsize (250-500 progeny)) | 5 Day Visual Score V3 [1, 10]: Dead | 5 Day Visual Score V2 [1, 8]: Dead | 5 Day Visual Score V1 [1, 9]: Dead

CCOc1cccc(C2ON=C(c3ccccc3OCC)C2C(=O)NCCc2ccc(OC)c(OCC)c2)c1 (stereo not shown) [AKC 124]
5 Day Visual Score V6 [1, 11]: L4/#AD/B | 5 Day Visual Score V5 [1, 14]: L4/#AD/B | 5 Day Visual Score V4 [1, 12]: L4/#AD/B

Cc1ccc(-c2noc(C3CCC(CNC(=O)Nc4ccc(OC(F)(F)F)cc4)CC3)n2)cc1C (stereo not shown) [AKC 112]
5 Day Visual Score V6 [1, 11]: OK (no effect (˜1000+ progeny)) | 5 Day Visual Score V5 [1, 14]: #AD/˜B

O=C(Nc1ccc(Br)cc1)N1CCC(c2nc(-c3ccccc3)no2)CC1 [AKC 108]
5 Day Visual Score V4 [1, 12]: L1 | 5 Day Visual Score V3 [1, 13]: L1 | 5 Day Visual Score V2 [1, 3]: Dead | 5 Day Visual Score V1 [1, 4]: Dead

O=C(Nc1ccc(Br)cc1)NC1CCC(c2nc(-c3ccccc3)no2)CC1 (stereo not shown) [AKC 114]
5 Day Visual Score V6 [1, 11]: B (low broodsize (25-100 progeny)) | 5 Day Visual Score V4 [1, 12]: L3/Dead(L | 5 Day Visual Score V3 [1, 13]: L3 | 5 Day Visual Score V2 [1, 3]: L3/Dead(L4) | 5 Day Visual Score V1 [1, 4]: Dead

CCOc1cccc(C2ON=C(c3ccccc3OCC)C2C(=O)NCc2ccc(OC(F)(F)F)cc2)c1 (stereo not shown) [AKC 125]
5 Day Visual Score V6 [1, 11]: < (reduced broodsize (250-500 progeny)) | 5 Day Visual Score V4 [1, 12]: L2 | 5 Day Visual Score V3 [1, 13]: L2 | 5 Day Visual Score V2 [1, 3]: L2/Dead(L4) | 5 Day Visual Score V1 [1, 4]: L2/Dead(L3)

CCOc1ccc(C2ON=C(c3ccc(N(C)C)cc3)C2C(=O)NCCc2ccc(F)cc2)cc1 (stereo not shown) [AKC 123]
5 Day Visual Score V6 [1, 11]: #AD/˜B | 5 Day Visual Score V4 [1, 12]: < (reduced broodsize (250-500 progeny)) | 5 Day Visual Score V1 [1, 4]: L1

CCOc1ccc(C2ON=C(c3ccc(F)cc3)C2C(=O)NCCc2ccc(F)cc2)cc1 (stereo not shown) [AKC 122]
5 Day Visual Score V6 [1, 11]: OK (no effect (˜1000+ progeny)) | 5 Day Visual Score V2 [1, 3]: L1 | 5 Day Visual Score V1 [1, 4]: Dead

COc1ccccc1-c1noc(C(C)CNC(=O)Nc2ccc(OC(F)(F)F)cc2)n1 (stereo not shown) [AKC 111]
5 Day Visual Score V6 [1, 11]: OK (no effect (˜1000+ progeny)) | 5 Day Visual Score V4 [1, 12]: Dead(L3/L | 5 Day Visual Score V3 [1, 13]: L2 | 5 Day Visual Score V2 [1, 3]: Dead | 5 Day Visual Score V1 [1, 4]: Dead

O=C(NCCc1ccccc1F)C1C(c2ccccc2Cl)=NOC1c1ccc(-c2ccccc2)cc1 (stereo not shown) [AKC 110]
5 Day Visual Score V6 [1, 11]: L1 | 5 Day Visual Score V5 [1, 14]: L1 | 5 Day Visual Score V4 [1, 12]: L1 | 5 Day Visual Score V3 [1, 13]: L1 | 5 Day Visual Score V2 [1, 3]: L1 | 5 Day Visual Score V1 [1, 4]: L1

O=C(Nc1ccc(OC(F)(F)F)cc1)NC1CCC(c2nc(-c3ccccc3)no2)CC1 (stereo not shown) [AKC 107]
5 Day Visual Score V6 [1, 11]: L2/Dead(L | 5 Day Visual Score V4 [1, 12]: Dead(L4) | 5 Day Visual Score V2 [1, 3]: Dead(L2/L3) | 5 Day Visual Score V1 [1, 4]: Dead

COc1ccc(C2=NOC(c3ccc(-c4ccccc4)cc3)C2C(=O)NCCc2ccccc2F)cc1 (stereo not shown) [AKC 121]
5 Day Visual Score V6 [1, 11]: < (reduced broodsize (250-500 progeny)) | 5 Day Visual Score V4 [1, 12]: #AD/˜B | 5 Day Visual Score V2 [1, 3]: L1 | 5 Day Visual Score V1 [1, 4]: L1

CC(C)(C)C1=NOC(c2ccc(-c3ccccc3)cc2)C1C(=O)NCCc1ccccc1F (stereo not shown) [AKC 120]
5 Day Visual Score V6 [1, 11]: OK (no effect (˜1000+ progeny)) | 5 Day Visual Score V5 [1, 14]: #AD/˜B | 5 Day Visual Score V3 [1, 13]: L1 | 5 Day Visual Score V1 [1, 4]: L1

O=C(NCCCCCc1nc(-c2ccccc2)no1)Nc1ccc(OC(F)(F)F)cc1 [AKC 115]
5 Day Visual Score V5 [1, 14]: Dead(L2/L | 5 Day Visual Score V4 [1, 12]: Dead(L2) | 5 Day Visual Score V3 [1, 13]: L2/Dead(L2) | 5 Day Visual Score V2 [1, 3]: Dead(L2/L3) | 5 Day Visual Score V1 [1, 4]: Dead
